The NIST ThermoML archive (doi:10.1016/j.jct.2017.04.015)

Experiment: mn = molality of the nth substance listed, in mol/kg
Details: 101.3 kPa, Liquid; for speed of sound: Frequency=2 MHz, Linear variable-path acoustic interferometer; for mass density: Pycnometric method

CCN(CC)CCOC(=O)c1ccc(N)cc1.Cl [2-diethylaminoethyl p-aminobenzoate hydrochloride] + O
Details | mass density [kg/m3] | speed of sound [m/s]
288.15 K, m1 = 0.01 | 999.6 | 1467.5
288.15 K, m1 = 0.02 | 1000.1 | 1469.1
288.15 K, m1 = 0.0301 | 1000.6 | 1470.7
288.15 K, m1 = 0.04 | 1001.1 | 1472.3
288.15 K, m1 = 0.05 | 1001.6 | 1473.9
288.15 K, m1 = 0.055 | 1001.85 | 1474.7
288.15 K, m1 = 0.0599 | 1002.09 | 1475.4
288.15 K, m1 = 0.065 | 1002.34 | 1476.2
288.15 K, m1 = 0.0701 | 1002.6 | 1477
288.15 K, m1 = 0.0751 | 1002.85 | 1477.7
288.15 K, m1 = 0.0801 | 1003.1 | 1478.5
288.15 K, m1 = 0.0852 | 1003.35 | 1479.2
288.15 K, m1 = 0.0898 | 1003.58 | 1480
288.15 K, m1 = 0.0952 | 1003.85 | 1480.7
288.15 K, m1 = 0.1 | 1004.09 | 1481.4
298.15 K, m1 = 0.0098 | 997.52 | 1498.3
298.15 K, m1 = 0.0196 | 997.99 | 1499.9
298.15 K, m1 = 0.0297 | 998.49 | 1501.5
298.15 K, m1 = 0.0406 | 999.02 | 1503.2
298.15 K, m1 = 0.0492 | 999.44 | 1504.6
298.15 K, m1 = 0.0534 | 999.65 | 1505.3
298.15 K, m1 = 0.061 | 1000.02 | 1506.5
298.15 K, m1 = 0.0636 | 1000.15 | 1506.9
298.15 K, m1 = 0.0688 | 1000.4 | 1507.7
298.15 K, m1 = 0.0758 | 1000.74 | 1508.8
298.15 K, m1 = 0.0783 | 1000.86 | 1509.2
298.15 K, m1 = 0.0846 | 1001.17 | 1510.2
298.15 K, m1 = 0.09 | 1001.44 | 1511
298.15 K, m1 = 0.0951 | 1001.68 | 1511.7
298.15 K, m1 = 0.1003 | 1001.94 | 1512.5
308.15 K, m1 = 0.01 | 994.51 | 1521.4
308.15 K, m1 = 0.02 | 995 | 1523
308.15 K, m1 = 0.03 | 995.48 | 1524.6
308.15 K, m1 = 0.0401 | 995.97 | 1526.2
308.15 K, m1 = 0.0499 | 996.44 | 1527.8
308.15 K, m1 = 0.055 | 996.69 | 1528.6
308.15 K, m1 = 0.06 | 996.93 | 1529.4
308.15 K, m1 = 0.065 | 997.17 | 1530.1
308.15 K, m1 = 0.0698 | 997.4 | 1530.9
308.15 K, m1 = 0.075 | 997.65 | 1531.7
308.15 K, m1 = 0.0801 | 997.9 | 1532.5
308.15 K, m1 = 0.085 | 998.14 | 1533.2
308.15 K, m1 = 0.09 | 998.38 | 1534
308.15 K, m1 = 0.095 | 998.62 | 1534.7
308.15 K, m1 = 0.1 | 998.86 | 1535.4

[Cl-].[K+] [potassium chloride] + O
Details | mass density, 288.15 K [kg/m3] | mass density, 298.15 K [kg/m3] | mass density, 308.15 K [kg/m3] | speed of sound, 288.15 K [m/s] | speed of sound, 298.15 K [m/s] | speed of sound, 308.15 K [m/s]
m1 = 0.06 | 1002.26 | 1000.42 | 997.25 | 1467.4 | 1498.3 | 1522.2
m1 = 0.1 | 1003.48 | 1001.79 | 998.71 | 1469.6 | 1502.5 | 1525.1
